The numbers were not newly measured in US20190192552A1, “PHARMACEUTICAL COMPOSITIONS AND METHODS FOR TREATING KELOIDS, HY[…] AND WOUNDS, AND FOR PROVIDING IMPROVED SKIN CARE” (Cormedix Inc., priority 2017, published 2019), which cites them from elsewhere.

This data set concerns Microbes. Conditions: microbes killed and resulting toxins inactivated.

Each structure is given as a SMILES string.

`O=S1(=O)CCN(CN2CCS(=O)(=O)NC2)CN1` [taurolidine, 4,4′-methylene-bis(tetrahydro-1,2,4-thiadiazine)-1,1,1′,1′,-tetraoxide]: the “destruction time in vitro” value is recorded as “approximately 30 minutes”.
